Patent publication US20040138160A1, “Preventive/therapeutic method for cancer” (priority 2001, published 2004)

| Compound | melting point [°C] |
| --- | --- |
| Fc1ccc(/C=C/c2nc(COc3ccc(CCCCn4ccnn4)cc3)co2)c(F)c1 [Compound B7, 1-{4-[4-({2-[(E)-2-(2,4-difluorophenyl)ethenyl]-1,3-oxazol-4-yl}methoxy)phenyl]butyl}-1H-1,2,3-triazole] | 115 to 117 |
| Cc1ccc(/C=C/c2nc(COc3ccc(CCCCn4ccnc4CCO)cc3)co2)cc1 [Compound B10, 2-[1-[4-[4-[[2-[(E)-2-(4-methylphenyl)ethenyl]-1,3-oxazol-4-yl]methoxy]phenyl]butyl]-1H-imidazol-2-yl]-1-ethanol] | 108 to 109 |
| Cc1ccccc1/C=C/c1nc(COc2ccc(CCCCn3ccnc3CCO)cc2)co1 [Compound B12, 2-[1-[4-[4-[[2-[(E)-2-(2-methylphenyl)ethenyl]-1,3-oxazol-4-yl]methoxy]phenyl]butyl]-1H-imidazol-2-yl]-1-ethanol] | 91 to 93 |
| CCc1ccc(/C=C/c2nc(COc3ccc(CCCCn4ccnc4CCO)cc3)co2)cc1 [Compound B13, 2-[1-[4-[4-[[2-[(E)-2-(4-ethylphenyl)ethenyl]-1,3-oxazol-4-yl]methoxy]phenyl]butyl]-1H-imidazol-2-yl]-1-ethanol] | 94 to 95 |
| OCCc1nccn1CCCCc1ccc(OCc2coc(/C=C/c3ccc(F)cc3)n2)cc1 [Compound B14, 2-(1-{4-[4-({2-[(E)-2-(4-fluorophenyl)ethenyl]-1,3-oxazol-4-yl}methoxy)phenyl]butyl)-1H-imidazol-2-yl)-1-ethanol] | 130 to 132 |
| OCCc1nccn1CCCCc1ccc(OCc2coc(/C=C/c3ccc(Cl)cc3)n2)cc1 [Compound B15, 2-[1-[4-[4-[[2-[(E)-2-(4-chlorophenyl)ethenyl]-1,3-oxazol-4-yl]methoxy]phenyl]butyl]-1H-imidazol-2-yl]-1-ethanol] | 127 to 128 |
| OCCc1nccn1CCCCc1ccc(OCc2coc(/C=C/c3ccc(F)cc3F)n2)cc1 [Compound B19, 2-[1-[4-[4-[[2-[(E)-2-(2,4-difluorophenyl)ethenyl]-1,3-oxazol-4-yl]methoxy]phenyl]butyl]-1H-imidazol-2-yl]-1-ethanol] | 93 to 95 |
| OCCc1nccn1CCCc1ccc(OCc2coc(/C=C/c3ccc(F)cc3F)n2)cc1 [Compound B20, 2-[1-[3-[4-[[2-[(E)-2-(2,4-difluorophenyl)ethenyl]-1,3-oxazol-4-yl]methoxy]phenyl]propyl]-1H-imidazol-2-yl]-1-ethanol] | 94 to 96 |
| OCC(O)Cc1nccn1CCCCc1ccc(OCc2coc(/C=C/c3ccc(C(F)(F)F)cc3)n2)cc1 (stereo not shown) [Compound B24, 3-[1-(4-(4-[(2-{(E)-2-[4-(trifluoromethyl)phenyl]ethenyl}-1,3-oxazol-4-yl)methoxy]phenyl]butyl)-1H-imidazol-2-yl]-1,2-propanediol] | 142 to 143 |
| OCC(O)Cc1nccn1CCCc1cccc(OCc2coc(/C=C/c3ccc(C(F)(F)F)cc3)n2)c1 (stereo not shown) [Compound B25, 3-[1-(3-{3-[(2-{(E)-2-[4-(trifluoromethyl)phenyl]ethenyl}-1,3-oxazol-4-yl)methoxy]phenyl}propyl)-1H-imidazol-2-yl]-1,2-propanediol] | 102 to 104 |
| OCC(O)Cc1nccn1CCCCc1ccc(OCc2coc(/C=C/c3c(F)cccc3F)n2)cc1 (stereo not shown) [Compound B28, 3-[1-[4-[4-[[2-[(E)-2-(2,6-difluorophenyl)ethenyl]-1,3-oxazol-4-yl]methoxy]phenyl]butyl]-1H-imidazol-2-yl]-1,2-propanediol] | 123 to 125 |

The remaining lines, values ahead:

| melting point [°C] | Compound |
| --- | --- |
| 157 to 158 | FC(F)(F)c1ccc(/C=C/c2nc(COc3ccc(CCCn4ccnn4)cc3)co2)cc1 [Compound B5, 1-(3-{4-[(2-((E)-2-[4-(trifluoromethyl)phenyl]ethenyl)-1,3-oxazol-4-yl)methoxy]phenyl}propyl)-1H-1,2,3-triazole] |
| 115 to 116 | FC(F)(F)c1ccc(/C=C/c2nc(COc3cccc(CCCn4ccnn4)c3)co2)cc1 [Compound B6, 1-(3-{3-[(2-{(E)-2-[4-(trifluoromethyl)phenyl]ethenyl}-1,3-oxazol-4-yl)methoxy]phenyl}propyl)-1H-1,2,3-triazole] |
| 89 to 90 | Fc1ccc(/C=C/c2nc(COc3cccc(CCCn4ccnn4)c3)co2)c(F)c1 [Compound B8, 1-{3-[3-({2-[(E)-2-(2,4-difluorophenyl)ethenyl]-1,3-oxazol-4-yl}methoxy)phenyl]propyl}-1H-1,2,3-triazole] |
| 109 to 111 | Cc1cccc(/C=C/c2nc(COc3ccc(CCCCn4ccnc4CCO)cc3)co2)c1 [Compound B11, 2-[1-[4-[4-[[2-[(E)-2-(3-methylphenyl)ethenyl]-1,3-oxazol-4-yl]methoxy]phenyl]butyl]-1H-imidazol-2-yl]-1-ethanol] |
| 149 to 150 | OCCc1nccn1CCCCc1ccc(OCc2coc(/C=C/c3ccc(Br)cc3)n2)cc1 [Compound B16, 2-[1-[4-[4-[[2-[(E)-2-(4-bromophenyl)ethenyl]-1,3-oxazol-4-yl]methoxy]phenyl]butyl]-1H-imidazol-2-yl]-1-ethanol] |
| 114 to 116 | OCC(O)Cc1nccn1CCCCc1ccc(OCc2coc(/C=C/c3ccc(F)cc3)n2)cc1 (stereo not shown) [Compound B23, 3-(1-{4-[4-({2-[(E)-2-(4-fluorophenyl)ethenyl]-1,3-oxazol-4-yl}methoxy)phenyl]butyl}-1H-imidazol-2-yl)-1,2-propanediol] |
| 126 to 128 | OCC(O)Cc1nccn1CCCCc1ccc(OCc2coc(/C=C/c3ccc(F)cc3F)n2)cc1 (stereo not shown) [Compound B26, 3-(1-{4-[4-({2-[(E)-2-(2,4-difluorophenyl)ethenyl]-1,3-oxazol-4-yl}methoxy)phenyl]butyl}-1H-imidazol-2-yl)-1,2-propanediol] |
| 92 to 94 | OCC(O)Cc1nccn1CCCc1cccc(OCc2coc(/C=C/c3ccc(F)cc3F)n2)c1 (stereo not shown) [Compound B27, 3-(1-{3-[3-({2-[(E)-2-(2,4-difluorophenyl)ethenyl]-1,3-oxazol-4-yl}methoxy)phenyl]propyl}-1H-imidazol-2-yl)-1,2-propanediol] |
